The target of data set [1] is T1, Cytochrome P450 1B1 (Homo sapiens, UniProt Q16678).
T1 sequence (Q16678 whole entry): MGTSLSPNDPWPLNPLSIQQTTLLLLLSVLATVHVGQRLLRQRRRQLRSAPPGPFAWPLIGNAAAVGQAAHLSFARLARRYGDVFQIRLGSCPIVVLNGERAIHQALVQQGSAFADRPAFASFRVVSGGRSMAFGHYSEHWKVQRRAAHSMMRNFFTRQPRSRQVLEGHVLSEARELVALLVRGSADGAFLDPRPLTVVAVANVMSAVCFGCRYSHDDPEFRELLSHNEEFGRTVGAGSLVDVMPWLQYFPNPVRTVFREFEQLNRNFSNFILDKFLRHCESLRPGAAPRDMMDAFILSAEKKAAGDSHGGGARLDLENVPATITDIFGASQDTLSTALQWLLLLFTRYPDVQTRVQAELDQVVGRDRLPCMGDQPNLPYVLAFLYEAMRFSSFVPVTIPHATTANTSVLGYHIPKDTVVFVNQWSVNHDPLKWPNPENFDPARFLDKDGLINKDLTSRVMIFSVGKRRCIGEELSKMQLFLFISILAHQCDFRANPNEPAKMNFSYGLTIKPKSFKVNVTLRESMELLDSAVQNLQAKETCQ
The data set is described as follows: Inhibition of CYP1B1 (unknown origin) expressed in Escherichia coli DH5alpha coexpressing human NADPH-P450 reductase using 7-Ethoxyresorufin as substrate up to 6 mins in presence of NADP+ by spectrofluorometric analysis.

For another data set, the target named is T2, Cytochrome P450 1A1 (Homo sapiens, UniProt P04798).
T2 sequence (P04798 whole entry): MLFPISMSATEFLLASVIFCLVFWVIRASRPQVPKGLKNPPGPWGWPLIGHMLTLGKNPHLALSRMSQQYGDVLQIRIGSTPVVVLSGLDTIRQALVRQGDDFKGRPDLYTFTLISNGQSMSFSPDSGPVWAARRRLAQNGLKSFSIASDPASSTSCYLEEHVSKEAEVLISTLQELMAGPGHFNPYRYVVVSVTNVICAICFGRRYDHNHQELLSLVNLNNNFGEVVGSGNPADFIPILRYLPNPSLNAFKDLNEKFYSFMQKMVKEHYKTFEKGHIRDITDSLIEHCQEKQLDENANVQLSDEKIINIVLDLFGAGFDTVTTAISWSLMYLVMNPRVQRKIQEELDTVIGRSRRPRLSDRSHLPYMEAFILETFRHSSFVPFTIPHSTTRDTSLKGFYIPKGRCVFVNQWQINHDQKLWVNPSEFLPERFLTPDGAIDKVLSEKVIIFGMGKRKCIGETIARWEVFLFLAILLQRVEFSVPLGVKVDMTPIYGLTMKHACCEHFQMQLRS
Briefly: Inhibition of CYP1A1 (unknown origin) expressed in Escherichia coli DH5alpha coexpressing human NADPH-P450 reductase using 7-Ethoxyresorufin as substrate up to 6 mins in presence of NADP+ by spectrofluorometric analysis.

For a further data set, the target named is T3, Cytochrome P450 1A2 (Homo sapiens, UniProt P05177).
T3 sequence (P05177 whole entry): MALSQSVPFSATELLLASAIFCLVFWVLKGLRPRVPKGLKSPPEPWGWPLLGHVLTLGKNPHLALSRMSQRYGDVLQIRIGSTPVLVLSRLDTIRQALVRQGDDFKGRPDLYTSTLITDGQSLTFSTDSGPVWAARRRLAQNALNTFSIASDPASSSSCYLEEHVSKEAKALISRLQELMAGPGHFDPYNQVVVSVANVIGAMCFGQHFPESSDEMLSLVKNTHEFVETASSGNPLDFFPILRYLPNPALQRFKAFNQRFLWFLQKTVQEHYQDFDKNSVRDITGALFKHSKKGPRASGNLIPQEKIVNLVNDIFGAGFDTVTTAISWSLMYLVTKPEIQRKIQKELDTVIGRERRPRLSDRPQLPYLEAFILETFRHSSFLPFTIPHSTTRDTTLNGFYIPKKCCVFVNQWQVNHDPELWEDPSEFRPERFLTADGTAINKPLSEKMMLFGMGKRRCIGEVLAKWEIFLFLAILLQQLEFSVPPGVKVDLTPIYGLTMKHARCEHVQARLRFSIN
The data set is described as follows: ChEBML_1684878. On the procedure:
Competitive inhibition of human liver microsomes CYP1A2 expressed in supersomes coexpressing NADPH-CYP reductase using 7-Ethoxyresorufin as substrate measured every 5 mins for 30 mins in presence of NADPH by fluorescence assay

For data set [2], the target named is T1, Cytochrome P450 1B1. The data set is described as follows: Inhibition of human CYP1B1 expressed in supersomes using ethoxyresorufin as substrate after 20 mins in presence of NADP by Dixon plot analysis.

SMILES strings stand for the structures.

As a reminder, the IC50 is the midpoint of a concentration-inhibition curve. For the compound `N#C[Se]Cc1cccc(C[Se]C#N)c1`, the IC50 on Cytochrome P450 1B1 [1] is 0.13 µM; on Cytochrome P450 1A1, 0.1 µM; on Cytochrome P450 1A2, 0.2 µM.

A word on the Ki: it is the dissociation constant of the complex between target and ligand, obtained from inhibition or displacement. With `C[C@]12CC[C@H]3[C@@H](CCC4=CC(=O)CC[C@@]43C)[C@@H]1CC[C@@H]2O` [Testosterone, 1], on Cytochrome P450 1B1 [2], the Ki turned out to be 412 µM.
